In PubChem BioAssay (NCI):
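Step 1: Grow cells in 96-well plates. Step 2: Expose to compound for 48 hours at 5 concentrations. Step 3: Interpolate endpoints linearly; if unreached, use highest concentration. Definition used: TGI = concentration required for complete inhibition of growth.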

Columns and labels:
Assay in all cases: inhibition of tumour cell growth, NCI panel, 48 h
786-0 renal = tested on: 786-0 renal
A498 renal = tested on: A498 renal
A549 NSCLC = tested on: A549 NSCLC
ACHN renal = tested on: ACHN renal
BT-549 breast = tested on: BT-549 breast
CAKI-1 renal = tested on: CAKI-1 renal
CCRF-CEM leukemia = tested on: CCRF-CEM leukemia
COLO 205 colon = tested on: COLO 205 colon
DU-145 prostate = tested on: DU-145 prostate
EKVX NSCLC = tested on: EKVX NSCLC
HCC-2998 colon = tested on: HCC-2998 colon
HCT-116 colon = tested on: HCT-116 colon
HCT-15 colon = tested on: HCT-15 colon
HL-60(TB) leukemia = tested on: HL-60(TB) leukemia
HOP-62 NSCLC = tested on: HOP-62 NSCLC
HOP-92 NSCLC = tested on: HOP-92 NSCLC
HS 578T breast = tested on: HS 578T breast
HT29 colon = tested on: HT29 colon
IGROV1 ovarian = tested on: IGROV1 ovarian
K-562 leukemia = tested on: K-562 leukemia
KM12 colon = tested on: KM12 colon
LOX IMVI melanoma = tested on: LOX IMVI melanoma
M14 melanoma = tested on: M14 melanoma
MALME-3M melanoma = tested on: MALME-3M melanoma
MCF7 breast = tested on: MCF7 breast
MDA-MB-231 breast = tested on: MDA-MB-231 breast
MDA-MB-435 = tested on: MDA-MB-435
MDA-N = tested on: MDA-N
MOLT-4 leukemia = tested on: MOLT-4 leukemia
NCI-H226 lung = tested on: NCI-H226 lung
NCI-H23 lung = tested on: NCI-H23 lung
NCI-H460 lung = tested on: NCI-H460 lung
NCI-H522 lung = tested on: NCI-H522 lung
NCI/ADR-RES ovarian = tested on: NCI/ADR-RES ovarian
OVCAR-3 ovarian = tested on: OVCAR-3 ovarian
OVCAR-4 ovarian = tested on: OVCAR-4 ovarian
OVCAR-5 ovarian = tested on: OVCAR-5 ovarian
OVCAR-8 ovarian = tested on: OVCAR-8 ovarian
PC-3 prostate = tested on: PC-3 prostate
RXF 393 renal = tested on: RXF 393 renal
SF-268 CNS = tested on: SF-268 CNS
SF-295 CNS = tested on: SF-295 CNS
SF-539 CNS = tested on: SF-539 CNS
SK-MEL-2 melanoma = tested on: SK-MEL-2 melanoma
SK-MEL-28 melanoma = tested on: SK-MEL-28 melanoma
SK-MEL-5 melanoma = tested on: SK-MEL-5 melanoma
SK-OV-3 ovarian = tested on: SK-OV-3 ovarian
SN12C renal = tested on: SN12C renal
SNB-19 CNS = tested on: SNB-19 CNS
SNB-75 CNS = tested on: SNB-75 CNS
SR leukemia = tested on: SR leukemia
SW-620 colon = tested on: SW-620 colon
T-47D breast = tested on: T-47D breast
TK-10 renal = tested on: TK-10 renal
U251 CNS = tested on: U251 CNS
UACC-257 melanoma = tested on: UACC-257 melanoma
UACC-62 melanoma = tested on: UACC-62 melanoma
UO-31 renal = tested on: UO-31 renal
RPMI-8226 leukemia = tested on: RPMI-8226 leukemia

Compound: COc1cc(C2c3cc4c(cc3OC3(OC)COC(=O)C23)OCO4)cc(OC)c1OC (stereo unspecified)
- TGI (786-0 renal): > 27.1 µM
- TGI (A498 renal): 2.38 µM
- TGI (A549 NSCLC): > 37.8 µM
- TGI (ACHN renal): > 100 µM
- TGI (BT-549 breast): > 100 µM
- TGI (CAKI-1 renal): > 90.2 µM
- TGI (CCRF-CEM leukemia): 3.05 µM
- TGI (COLO 205 colon): 0.64 µM
- TGI (DU-145 prostate): 6.51 µM
- TGI (EKVX NSCLC): > 72.1 µM
- TGI (HCC-2998 colon): 14.9 µM
- TGI (HCT-116 colon): 7 µM
- TGI (HCT-15 colon): 20.1 µM
- TGI (HL-60(TB) leukemia): 13.6 µM
- TGI (HOP-62 NSCLC): > 100 µM
- TGI (HOP-92 NSCLC): > 100 µM
- TGI (HS 578T breast): > 100 µM
- TGI (HT29 colon): 0.804 µM
- TGI (IGROV1 ovarian): > 100 µM
- TGI (K-562 leukemia): 11 µM
- TGI (KM12 colon): 7.68 µM
- TGI (LOX IMVI melanoma): 23.4 µM
- TGI (M14 melanoma): 8.43 µM
- TGI (MALME-3M melanoma): > 100 µM
- TGI (MCF7 breast): > 56.8 µM
- TGI (MDA-MB-231 breast): 2.08 µM
- TGI (MDA-MB-435): 0.68 µM
- TGI (MDA-N): 0.319 µM
- TGI (MOLT-4 leukemia): 12.2 µM
- TGI (NCI-H226 lung): 8.16 µM
- TGI (NCI-H23 lung): > 100 µM
- TGI (NCI-H460 lung): > 67.9 µM
- TGI (NCI-H522 lung): 3.19 µM
- TGI (NCI/ADR-RES ovarian): 4.39 µM
- TGI (OVCAR-3 ovarian): 2.45 µM
- TGI (OVCAR-4 ovarian): > 100 µM
- TGI (OVCAR-5 ovarian): > 89.2 µM
- TGI (OVCAR-8 ovarian): 6.12 µM
- TGI (PC-3 prostate): > 44.9 µM
- TGI (RXF 393 renal): 11.7 µM
- TGI (SF-268 CNS): > 85.6 µM
- TGI (SF-295 CNS): 0.479 µM
- TGI (SF-539 CNS): 0.697 µM
- TGI (SK-MEL-2 melanoma): > 40.9 µM
- TGI (SK-MEL-28 melanoma): > 100 µM
- TGI (SK-MEL-5 melanoma): 7.46 µM
- TGI (SK-OV-3 ovarian): > 100 µM
- TGI (SN12C renal): > 80.5 µM
- TGI (SNB-19 CNS): > 26.6 µM
- TGI (SNB-75 CNS): > 100 µM
- TGI (SR leukemia): 4.8 µM
- TGI (SW-620 colon): > 100 µM
- TGI (T-47D breast): > 100 µM
- TGI (TK-10 renal): > 100 µM
- TGI (U251 CNS): > 66.3 µM
- TGI (UACC-257 melanoma): > 100 µM
- TGI (UACC-62 melanoma): > 20.5 µM
- TGI (UO-31 renal): > 100 µM

Compound: CCOc1cc2c(cc1O)CC[C@@H]1[C@@H]2CC[C@]2(C)C(OS(=O)OC3CC[C@@H]4[C@H]5CCc6cc(O)c(OCC)cc6[C@@H]5CC[C@@]34C)CC[C@@H]12 (stereo partly specified)
- TGI (786-0 renal): > 34.3 µM
- TGI (A498 renal): 36.6 µM
- TGI (A549 NSCLC): 11.3 µM
- TGI (ACHN renal): > 81.7 µM
- TGI (BT-549 breast): 13.6 µM
- TGI (CAKI-1 renal): 26 µM
- TGI (CCRF-CEM leukemia): > 100 µM
- TGI (COLO 205 colon): > 53.7 µM
- TGI (DU-145 prostate): 11.5 µM
- TGI (EKVX NSCLC): > 37.7 µM
- TGI (HCC-2998 colon): 31.9 µM
- TGI (HCT-116 colon): > 39.6 µM
- TGI (HCT-15 colon): 15.3 µM
- TGI (HL-60(TB) leukemia): 0.929 µM
- TGI (HOP-62 NSCLC): > 27 µM
- TGI (HOP-92 NSCLC): > 100 µM
- TGI (HS 578T breast): > 57.3 µM
- TGI (HT29 colon): > 53.7 µM
- TGI (IGROV1 ovarian): 25.8 µM
- TGI (K-562 leukemia): > 55.6 µM
- TGI (KM12 colon): > 35.1 µM
- TGI (LOX IMVI melanoma): > 51.7 µM
- TGI (M14 melanoma): 2.58 µM
- TGI (MALME-3M melanoma): 13.4 µM
- TGI (MCF7 breast): 7.01 µM
- TGI (MDA-MB-231 breast): 29.8 µM
- TGI (MDA-MB-435): 0.548 µM
- TGI (MDA-N): 0.544 µM
- TGI (MOLT-4 leukemia): > 68 µM
- TGI (NCI-H226 lung): 14.6 µM
- TGI (NCI-H23 lung): 14 µM
- TGI (NCI-H460 lung): > 34.2 µM
- TGI (NCI/ADR-RES ovarian): 23.7 µM
- TGI (OVCAR-3 ovarian): 0.813 µM
- TGI (OVCAR-4 ovarian): > 64.5 µM
- TGI (OVCAR-5 ovarian): > 57.8 µM
- TGI (OVCAR-8 ovarian): 10 µM
- TGI (PC-3 prostate): 24.9 µM
- TGI (RPMI-8226 leukemia): 13.9 µM
- TGI (RXF 393 renal): > 20.5 µM
- TGI (SF-268 CNS): > 100 µM
- TGI (SF-295 CNS): 22.5 µM
- TGI (SF-539 CNS): 1.85 µM
- TGI (SK-MEL-2 melanoma): 6.19 µM
- TGI (SK-MEL-28 melanoma): 11.7 µM
- TGI (SK-MEL-5 melanoma): 3.84 µM
- TGI (SK-OV-3 ovarian): > 37.3 µM
- TGI (SN12C renal): 28.9 µM
- TGI (SNB-19 CNS): 30.4 µM
- TGI (SNB-75 CNS): 34.4 µM
- TGI (SR leukemia): > 44 µM
- TGI (SW-620 colon): 11 µM
- TGI (T-47D breast): > 100 µM
- TGI (TK-10 renal): > 100 µM
- TGI (U251 CNS): 1.4 µM
- TGI (UACC-257 melanoma): > 42.8 µM
- TGI (UACC-62 melanoma): 30.9 µM
- TGI (UO-31 renal): 27.4 µM
